# Legend:
# [1] = 13-week oral safety study in aged APP23 mice: body weight; assay type: in vivo, mouse; details: chronic treatment, 13 weeks; aged female APP23 mice
# Description: Body weight range: 26 to 36 g (at start of dosing)
# Means and standard deviations (SD), standard error of the mean (SEM) and coefficient of variation (CV) as indicated accordingly were calculated and an Analysis of Variance (ANOVA) performed. For the analysis of body weights a 2way ANOVA with Turkey's multiple comparison test was performed using GraphPad Prism 6. ANOVA with random effects statistical analyses were performed on MRI data using Systat Version 13 (Systat Software, Inc., San Jose, Calif., USA).
# APP23 mice [2] = assay: 13-week oral safety study in aged APP23 mice: MRI of microhaemorrhagic lesions; assay type: in vivo, mouse; details: aged female APP23 mice
# Description: The APP23 mouse strain was chosen because of the existence of microhaemorrhages in aged animals. Females were chosen because of having a much higher overall Aβ load, a higher Aβ40/Aβ42 ratio and thus more pronounced microhaemorrhages.
# β1 antibody administration: intraperitoneal, once weekly. Dosage volume: 0.15 mL/mouse (maximum 10 mL/kg)
# Animal species and strain: Mouse; transgenic APP23 (B6.D2-Tg(Thy1App)23/1Sdz)
# Sex: Females (females have a much higher overall Aβ load, a higher Aβ40/Aβ42 ratio and thus more pronounced microhaemorrhages)
# Age: Approximately 17-18 months (at start of dosing)
# For MRI investigations, mice were anesthetized with 1.5% isoflurane (Abbott, Cham, Switzerland) in a mixture of oxygen/N2O (2:1) administered via a face mask and placed in a Plexiglas cradle. […] Respiration was monitored throughout the acquisitions. […]
# Acquisition and analysis of the MRI data were performed by a blinded investigator. Sites in the cortex and thalamus presenting signal attenuation with a minimum diameter of 70 μm (lesions) were analyzed throughout the whole brain. To ensure that the same site (lesion) was not counted multiple times, its presence was carefully controlled over several consecutive slices from the 3D data set. The total volume of the lesions was assessed using ImgTool, an IDL (Interactive Data Language Research Systems, Boulder, Colo., USA) based software. […]
# Aβ42 = assay: Chronic treatment of APP23 mice: Triton TX-100 soluble Aβ42 in brain; assay type: in vivo, mouse
# Description: (§1) Frozen mouse forebrains were weighed and homogenized in 9 volumes (w/v) of ice-cold TBS-Complete (20 mM Tris-HCl pH 7.4, 137 mM NaCl, 1× Complete [Protease Inhibitor Cocktail Tablets: 1 836 145, Roche Diagnostics GmbH, Penzberg, Germany]) by sonication (90% duty cycle, output control 5, 40-55 pulses, [Sonifier 450, Branson]). After homogenization several 50 μl aliquots were prepared for analysis and were stored at −80° C.
# Human Aβ40 and 42 in mice was determined with the Meso Scale Discovery (MSD) 96-well MULTI-ARRAY human/rodent (6E10) Aβ40/42 Assay (Meso Scale Discovery, Rockville, Md., USA) as described in [RD-2010-00284]. The assay was done according to the manufacturer's instructions except for the calibration curve and the sample preparations. […]
# The calibration curve was prepared in a corresponding dilution of 1% Blocker A solution spiked with synthetic Aβ1-40 peptide (1.56-100 pg/ml) except for non-transgenic mouse brain samples: In this case, the calibration curve was prepared in a correspondingly diluted APP knockout mouse forebrain spiked with synthetic Aβ1-40 peptide (1.56-100 pg/ml). […] The relative units for samples and standards were imported into SOFTmax PRO 4.0 for calculation of standard curves and quantification of samples. […]
# Aβ40 = assay: Chronic treatment of APP23 mice: Triton TX-100 soluble Aβ40 in brain; assay type: in vivo, mouse
# Description: as §1
# Human Aβ40 and 42 in mice was determined with the Meso Scale Discovery (MSD) 96-well MULTI-ARRAY human/rodent (6E10) Aβ40/42 Assay (Meso Scale Discovery, Rockville, Md., USA) as described in [RD-2010-00284]. The assay was done according to the manufacturer's instructions except for the calibration curve and the sample preparations. TritonX-100 (TX-100) soluble Aβ40 and 42 was extracted from forebrain with 1% TX-100 using a 50 μl aliquot of each 1:10 forebrain homogenate, mixed with 50 μl 2% TX-100 in TBS complete (20 mM Tris-HCl pH 7.4, 137 mM NaCl, 1× Complete [Protease Inhibitor Cocktail Tablets: 1 836 145, Roche Diagnostics GmbH, Penzberg Germany]) to reach a final concentration of 1% TX-100 and a 1:20 forebrain dilution. The samples were incubated for 15 min on ice and vortexed every 5 min. The samples were ultra-centrifuged (100000×g, 4° C., 15 min) and 50 μl of the clear supernatants were transferred to fresh tubes. The supernatants were further diluted 1:5 in 3% Blocker A solution (from kit) to a final forebrain dilution of 1:100 and applied to the plate.
# The calibration curve was prepared in a corresponding dilution of 1% Blocker A solution spiked with synthetic Aβ1-40 peptide (1.56-100 pg/ml) except for non-transgenic mouse brain samples: In this case, the calibration curve was prepared in a correspondingly diluted APP knockout mouse forebrain spiked with synthetic Aβ1-40 peptide (1.56-100 pg/ml). For all samples and standards 25 μl were applied per well. For each determination duplicate wells were done. The mean values from the duplicate wells were used for calculations. The relative units for samples and standards were imported into SOFTmax PRO 4.0 for calculation of standard curves and quantification of samples.
# Brain homogenates were extracted with 1% Triton X-100 in buffer and the resulting supernatant was considered to represent soluble forms of APP metabolites. In addition to Aβ40 and 42, we determined the N-terminal APP fragments sAPPα (direct cleavage product of α-secretase) and sAPPβ (Swe) (direct product of BACE1 cleavage). […] Since no change in the APP expression and Aβ generation is known to happen during this age, it is assumed that the increased values in the vehicle group (18-20 mo old) arise from “leakage” out of the Aβ deposits (which increase several fold, see below).
# [3] = 13-week oral safety study in aged APP23 mice: plasma and brain concentrations of Compound 1 (toxicokinetics); assay type: in vivo; details: female, APP23, mouse, 0.3 g/kg food
# Description: (§2) Sections of brain were collected at necropsy from all scheduled animals. […] Rest of the brain was fixed in 10% neutral-buffered formalin.
# Blood was obtained from all the animals at necropsy. Approximately 0.3 mL of whole blood was collected after euthanasia from the vena cava into tubes containing EDTA as anticoagulant. The tubes were placed in ice water during the sampling period. Plasma was separated thereafter by centrifugation (10 min, 1270 G, +4° C.) and transferred to one uniquely labelled clear tube (1.8 mL NUNC 2D coded tubes from Thermo) and frozen at −70° C. or below.
# About 100 to 200 mg of brain tissue were collected, weighed into 1.8 mL NUNC 2D coded tubes from Thermo, and frozen at −70° C. or below.
# APP23 mice [4] = assay: 13-week oral safety study in aged APP23 mice: post-mortem macroscopic and brain microscopic examination (H&E, Perls' Prussian blue); assay type: in vivo, mouse
# From the text: as §2
# Four brain sections were processed and stained with hematoxylin and eosin (H&E) and Perls' Prussian blue for hemosiderin deposits, levels 2, 3, 4, as described in Bolon B et al., 2013, and one additional slide at hypothalamus level (level 2′).
# Procedure for brain collection: Cerebellum was separated from cerebrum. Remaining cerebrum (from the anterior to level 5) was transferred into formalin for pathology.
# Brain sections stained with haematoxylin and eosin and with Perls' Prussian blue, were examined under a light microscope. The distribution, size and staining intensity of hemosiderin deposits in Perls' Prussian blue-stained sections were assessed based on the grading scheme in Table 37.
# [5] = aged APP23 mice, brain, H&E, after 3 months treatment
# [6] = aged APP23 mice, brain, H&E, after 3 months treatment, Grade 1 = minimal
# [7] = aged APP23 mice, brain, H&E, after 3 months treatment, grade 2 = slight
# [8] = aged APP23 mice, brain, after 3 months treatment
# [9] = aged APP23 mice, brain, after 3 months treatment, Grade 1 = minimal
# [10] = aged APP23 mice, brain, after 3 months treatment, grade 2 = slight
structure (smiles),measurement,setting,value
"C[C@@]1(c2nc(NC(=O)c3ncc(C(F)(F)F)cc3Cl)ccc2F)CO[C@@](C)(C(F)(F)F)C(N)=N1 [Compound 1, N-(6-((3R,6R)-5-amino-3,6-dimethyl-6-(trifluoromethyl)-3,6-dihydro-2H-1,4-oxazin-3-yl)-5-fluoropyridin-2-yl)-3-chloro-5-(trifluoromethyl)picolinamide]",body weight,[1],did not lead to any change in body weight
same,total lesion volume detected by MRI,"APP23 mice [2]; 1, 2 and 3 months of treatment",did not exacerbate lesion volumes
same,lesion numbers (mean±SEM) by MRI,APP23 mice [2]; month 3,11.5±2.0
same,Aβ42 change vs vehicle (TX-100 soluble),Aβ42; 0.03 g/kg vs vehicle,−20.1%
same,Aβ42 change vs vehicle (TX-100 soluble),Aβ42; 0.3 g/kg vs vehicle,−77.3%
same,Aβ40 change vs vehicle (TX-100 soluble),Aβ40; 0.03 g/kg vs vehicle,−4.6%
same,Aβ40 change vs vehicle (TX-100 soluble),Aβ40; 0.3 g/kg vs vehicle,−43.7%
same,treatment effects on soluble Aβ species from brain tissue and Aβ40 in CSF,Aβ40; high Compound 1 dose,−43.7 to −77%
same,treatment effects on soluble Aβ species from brain tissue and Aβ40 in CSF,Aβ40; low Compound 1 dose,−4.6 to −20%
same,concentration at 13 weeks,"[3]; brain (cerebellum, level 7), end of the study",4030 ng/g
same,Kp at 96 day,"[3]; brain / plasma, day 96, read-out: brain concentration compared to plasma, range",2.2 to 6.1
same,Kp at 13 weeks,"[3]; brain / plasma, end of the study, read-out: average of the ratio brain over plasma",3.3
same,concentration at 13 weeks,"[3]; plasma, end of the study",1.21 µg/mL
same,Blood vessel inflammation,APP23 mice [4]; 3 months treatment,least marked
same,mineralisation of plaques in the thalamus,APP23 mice [4]; 3 months treatment,no indication of an effect
same,thrombus formation in affected blood vessels or small areas of previous necrosis (infarct),APP23 mice [4]; 3 months treatment,not
same,extent of plaque formation,"APP23 mice [4]; 3 months treatment, compared to the other groups",appeared reduced in some
same,"Amyloid plaques, % affected",APP23 mice [4]; [5],100%
same,"Haemorrhage, % affected",APP23 mice [4]; [5],7%
same,"Inflammation, vessel, % affected",APP23 mice [4]; [5],27%
same,"Haemorrhage, number of animals with Grade 1",APP23 mice [4]; [6],1
same,"Inflammation, vessel, number of animals with Grade 1",APP23 mice [4]; [6],4
same,"Haemorrhage, number of animals with Grade 2",APP23 mice [4]; [7],0
same,"Inflammation, vessel, number of animals with Grade 2",APP23 mice [4]; [7],0
same,"Amyloid plaques, number of animals with Grade 2","APP23 mice [4]; aged APP23 mice, brain, H&E, after 3 months treatment, grade 2 = slight (notably fewer plaques than controls)",4
same,"Amyloid plaques, number of animals with Grade 3","APP23 mice [4]; aged APP23 mice, brain, H&E, after 3 months treatment, grade 3 = moderate (extent in controls)",11
same,"Haemosiderin (Perls' staining), % affected",APP23 mice [4]; [8],47%
same,"Infarct, % affected",APP23 mice [4]; [8],0%
same,"Mineralisation, % affected",APP23 mice [4]; [8],13%
same,"Thrombus, % affected",APP23 mice [4]; [8],0%
same,"Haemosiderin (Perls' staining), number of animals with Grade 1",APP23 mice [4]; [9],7
same,"Infarct, number of animals with Grade 1",APP23 mice [4]; [9],0
same,"Mineralisation, number of animals with Grade 1",APP23 mice [4]; [9],2
same,"Thrombus, number of animals with Grade 1",APP23 mice [4]; [9],0
same,"Haemosiderin (Perls' staining), number of animals with Grade 2",APP23 mice [4]; [10],0
same,"Mineralisation, number of animals with Grade 2",APP23 mice [4]; [10],0
same,"Thrombus, number of animals with Grade 2",APP23 mice [4]; [10],0
same,"Haemosiderin (Perls' staining), number of animals with Grade 3","APP23 mice [4]; aged APP23 mice, brain, after 3 months treatment, grade 3 = moderate",0

# Source: patent publication US10722518B2, “Oxazine derivative for use in the treatment or prevention of cerebral amyloid angiopathy” (Novartis AG, priority 2016, dated 2020)
